The values that follow come from article PMC7616463, “Peptidic boronic acid Plasmodium falciparum SUB1 inhibitors with improved selectivity over human proteasome” (Journal of medicinal chemistry, 2024).

The target in data set [1] is T1, human 20S proteasome (H20S), chymotrypsin-like β5 activity (Homo sapiens, UniProt P20618+P28074).
T1 construct: variant as stated: H20S
Kind of data set: Human 20S proteasome kinetic assay (chymotrypsin-like β5 activity). It is filed as biochemical. As to conditions: purified human 20S proteasome, β5 activity, substrate LLVY-R110, fluorescence; duplicate; read-out: IC50, nM H20S inhibition. The method, then: The fluorescent Proteasome substrate LLVY-R110 (ex: 490 nm, Em:525 nm) (#MAK172, Sigma-Aldrich) was used to measure the chymotrypsin-like activity (β5) of the human 20S proteasome and was prepared according to the activity assay kit instructions. Cleavage of this peptide generated intense green fluorescence due to the R110 group and was monitored at 520-530 nm with excitation at 480-500 nm. The purified human 20S proteasome (BML-PW8720-0050, EnzoSciences), stored at 1mg/ml in 20 mM Tris-HCl pH 7.2, 1mM EDTA, 1mM DTT 1mM NaN3, 50% glycerol was diluted in TRIS-buffered saline (TBS, pH 7.4) to an intermediate concentration of 0.44 μM. […] The reactions were performed in white 96-well fluorescent microtiter-plate format (Nunc). The Substrate solution was added first (100 μl), followed by 1 μl of the inhibitor (50 μM intermediate stock) and 1 μl of the H20S proteasome at 0.44 μM. The IC50s were determined for a selection of potent PfSUB1 inhibitors. After sequential dilution of the inhibitors in 100% DMSO, 1 μl of each dilution was used in a 100 μl reaction containing the fluorescent substrate. The reaction was initiated by the addition of 1 μl of the 20S proteasome intermediate stock solution. The fluorescence increase was monitored using a SpectraMax M5e plate reader and SoftMax Pro-6.3 software Measure activity on a plate reader (ex: 490 nm, Em: 525 nm) with the photomultiplier tube (PMT) set to medium with readings every 3 min for one hour. All measurements were done in duplicate. The progress curves were plotted within GraphPad Prism 9.5.0.

For data set [2], the target named is T2, recombinant PfSUB1 (rPfSUB1) (Plasmodium falciparum, UniProt Q8I0V0).
T2 construct: made in house
T2 sequence (Q8I0V0 218-688): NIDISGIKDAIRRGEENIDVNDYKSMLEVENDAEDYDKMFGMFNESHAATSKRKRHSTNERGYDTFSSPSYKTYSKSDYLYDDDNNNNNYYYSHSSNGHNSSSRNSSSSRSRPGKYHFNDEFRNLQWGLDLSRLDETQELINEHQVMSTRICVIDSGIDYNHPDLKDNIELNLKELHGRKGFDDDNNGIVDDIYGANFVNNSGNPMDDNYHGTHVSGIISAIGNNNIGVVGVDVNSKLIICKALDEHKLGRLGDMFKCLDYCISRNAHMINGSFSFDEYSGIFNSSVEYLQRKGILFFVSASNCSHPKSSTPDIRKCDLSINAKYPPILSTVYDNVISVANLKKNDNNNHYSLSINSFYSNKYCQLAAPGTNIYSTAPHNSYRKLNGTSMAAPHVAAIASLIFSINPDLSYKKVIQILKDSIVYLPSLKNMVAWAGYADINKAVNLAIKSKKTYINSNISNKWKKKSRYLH
Kind of data set: PfSUB1 enzyme assay (recombinant PfSUB1, fluorogenic peptide substrate). It is filed as biochemical. The following applies: for IC50: rPfSUB1, substrate SERA4st1F-6R12 0.1 μM, 5 min preincubation, pH 8.2, fluorescence, duplicate, read-out: IC50, nM PfSUB1 inhibition; for inhibition of rPfSUB1 activity at 1 μM: 1 μM final concentration, typical of duplicate assays. The method, then:
The proteolytic activity of rPfSUB1 was monitored by the cleavage of the fluorogenic peptidic substrate SERA4st1F-6R12 (Ac-[…]-OH) and has been described previously.[28] Briefly, chymotrypsin treated rPfSUB1 (expressed and purified as described before […] was stored at −80 °C as a 228 U/mL stock in 20 mM Tris−HCl pH 8.2, 150 mM NaCl, 10% glycerol, and diluted for use (1:500) in reaction buffer (20 mM Tris−HCl pH 8.2, 150 mM NaCl, 12 mM CaCl2, 25 mM CHAPS). Peptidic boronic acid inhibitors were dissolved in 100% DMSO at 20 mM, then further diluted in DMSO to generate stock solutions ranging from 500 to 0.01 μM and then used diluted 1:100 in the enzyme reactions. All reactions were performed in wells of white 96-well microwell plates (Nunc); 50 μL diluted rPfSUB1 was preincubated for 5 min with 1 μL each of the serially diluted boronic acid inhibitors, followed by addition of 50 μL substrate solution (0.1 μM final). Subsequent fluorescence increase was continuously monitored using a SpectraMax M5e plate reader and SoftMax Pro-6.3 software, with readings taken every 3 min for 60 min using excitation and emission values of 552 and 580 nm, respectively. […] All experiments were performed in duplicate.

The subject of another data set is HepG2 cells. Description: Mammalian cell cytotoxicity assay (resazurin). As to conditions: HepG2, 48 h treatment, resazurin; triplicate; tested up to 30 μM (1a), 200 μM (4c), 150 μM (tipifarnib). Type of data set: cell-based. The method, then: HepG2 cells were cultured in Dulbecco’s Modified Eagle Medium with F12 GlutaMAX (DMEM/F12 GlutaMAX) (Gibco) supplemented with 10% (v/v) heat-inactivated foetal calf serum (FCS), 1% L-glutamine and 1% penicillin-streptomycin (10,000 U/ml), and maintained in a humidified 5% CO2 incubator at 37°C. The culture medium was changed every 2-3 days and cells were passaged when a confluency of 75-80% was reached. At passage 2 or above, HepG2 cells were harvested using 0.25% trypsin-0.53 mM EDTA (Gibco). Cell counts and cell viability were determined by an automated cell counting machine (vi-CELL, Beckman) and seeded at a density of 1x10^4-5x10^5 cells per well in a transparent flat-bottom 96-well plate (Corning), and maintained in a humidified 5% CO2 incubator at 37°C. […] As a vehicle control, 1% DMSO was used. After 48 hs, media was removed and replaced with 100 μl media containing 10% resazurin solution (Invitrogen) and incubated for 4 h at 37°C in 5% CO2. After 4 h, the solution was transferred to an opaque 96-well plate (Corning) to measure reduction of resazurin to resorufin using a SpectraMax M5 microplate reader (Molecular Devices LLC) (ex. 560 nm, em. 590 nm). Cells without treatment compounds were used to determine 100% viability. Cell viability was determined by measuring fluorescence as a % of solvent control. Concentration viability response curves, CC50 values, mean CC50 value and standard error were generated using GraphPad Prism 10 (GraphPad Software).

The subject of another data set is P. falciparum line B11. Description: Parasite growth assay, wild-type B11 line. As to conditions: Plasmodium falciparum, 96 h, read-out: EC50 parasite growth, B11 line. Type of data set: cell-based. From the text:
The DiCre-expressing P. falciparum line B11 (derived from a 3D7 background) has been described in full previously.[45] […] Briefly, the B11 line was first modified by the incorporation into the genomic Pfs47 locus of a cassette for constitutive expression of a TetR-DOZI fusion protein. The 3’ flanking region of the SUB1 gene was then modified by incorporation of 10 Tet repressor-binding aptamers, following by limiting dilution cloning to obtain a genetically homogenous line called 1AC5. […] Complete details of the characterization of this parasite line will be provided in a separate manuscript.
(§1) The effects of test compounds on in vitro growth of the B11 and 1AC5 P. falciparum lines was determined by flow cytometry as described previously.[48] Briefly, synchronous ring-stage parasites at 0.1% parasitaemia and 2% haematocrit were dispensed into flat-bottomed 96-well culture plates (200 ul per well) each containing 1 ul of appropriate serial dilutions of boronic acid or control antimalarial compounds in DMSO. Control wells contained DMSO only. Following incubation in sealed, humidified gassed chambers at 37°C for 96 h to allow the parasites to undergo two entire cycles of erythrocytic growth, cells were fixed, stained with SYBR green and analysed by flow cytometry on a BD FACSVerse™ using BD FACSuite™ software. Data were analysed using FlowJo software. EC50 values and statistical data were determined from dose-response curves generated using GraphPad Prism 10 (GraphPad Software).

For data set [3], the system named is P. falciparum line 1AC5 (8-10-fold reduced PfSUB1). Description: Parasite growth assay, PfSUB1 knock-down 1AC5 line. It is filed as cell-based, Plasmodium falciparum. As to conditions: Plasmodium falciparum, 96 h, read-out: EC50 parasite growth, 1AC5 line.
Description: The DiCre-expressing P. falciparum line B11 (derived from a 3D7 background) has been described in full previously.[45] To generate a mutant line selectively expressing reduced levels of PfSUB1, we exploited the anhydrotetracycline (aTc)-inducible TetR aptamer system described by Niles and colleagues[46] and subsequently adapted by Rajaram et al.[47] Briefly, the B11 line was first modified by the incorporation into the genomic Pfs47 locus of a cassette for constitutive expression of a TetR-DOZI fusion protein. The 3’ flanking region of the SUB1 gene was then modified by incorporation of 10 Tet repressor-binding aptamers, following by limiting dilution cloning to obtain a genetically homogenous line called 1AC5. […] Complete details of the characterization of this parasite line will be provided in a separate manuscript.
as §1

SMILES strings stand for the structures. Where two headings read alike, the source gives them in different places.

As a reminder, the IC50 is the midpoint of a concentration-inhibition curve. Consider `CC[C@H](C)[C@H](NC(=O)[C@@H](NC(=O)c1cccc(-c2ccccc2)n1)C1CCCC1)C(=O)NCC(=O)N[C@H]1CCC(=O)OB1O` [4b, N-((S)-1-cyclopentyl-2-(((2S,3S)-1-((2-(((R)-2-hydroxy-6-oxo-1,2-oxaborinan-3-yl)amino)-2-oxoethyl)amino)-3-methyl-1-oxopentan-2-yl)amino)-2-oxoethyl)-6-phenylpicolinamide], for which the half-maximal inhibitory concentration (IC50) was 160 ± 10 nM in data set [1] and 13 ± 0.6 nM in data set [2].

Turning to `Cn1cncc1[C@@](N)(c1ccc(Cl)cc1)c1ccc2c(c1)c(-c1cccc(Cl)c1)cc(=O)n2C` [Tipifarnib, reference compound], the “CC50 (concentration that reduced cell viability by 50%)” value in the data set with HepG2 cells is 30000 nM.

Take `CC(=O)N[C@H](C(=O)N[C@H](C(=O)NCC(=O)N[C@@H](C)B(O)O)[C@@H](C)O)C1CCCC1` [1b]: the IC50 in data set [1] turned out to be 35.4 ± 1.7 nM.

As to `CC[C@H](C)[C@H](NC(=O)[C@@H](NC(=O)c1ccc2ccccc2n1)C1CCCC1)C(=O)NCC(=O)N[C@@H](C)B(O)O` [3a, ((3S,6S,12R)-6-((S)-sec-butyl)-3-cyclopentyl-1,4,7,10-tetraoxo-1-(quinolin-2-yl)-2,5,8,11-tetraazatridecan-12-yl)boronic acid], the results for the IC50 in data set [1] and in data set [2] were 6 ± 0.5 nM and 9.5 ± 0.6 nM, respectively.

Regarding `CC[C@H](C)[C@H](NC(=O)[C@@H](NC(=O)c1ccc2ccccc2n1)C1CCCC1)C(=O)NCC(=O)N[C@H]1CCC(=O)OB1O` [4a, N-((S)-1-cyclopentyl-2-(((2S,3S)-1-((2-(((R)-2-hydroxy-6-oxo-1,2-oxaborinan-3-yl)amino)-2-oxoethyl)amino)-3-methyl-1-oxopentan-2-yl)amino)-2-oxoethyl) quinoline-2-carboxamide], the IC50 in data set [1] is 410 ± 5 nM; in data set [2], 36.1 ± 2.4 nM.

One may read the EC50 as the concentration that produces a half-maximal response. On to `C[C@H]1[C@H](OC(=O)CCC(=O)O)O[C@@H]2O[C@@]3(C)CC[C@H]4[C@H](C)CC[C@@H]1[C@@]24OO3` [Artesunate, artesunate, reference compound], for which the EC50 in the data set with P. falciparum line B11 (2 erythrocytic cycles, SYBR green flow cytometry, triplicate, 95% confidence interval in parentheses) stood at 3.7 nM; in data set [3], 4.87 nM.

In the case of `CC[C@H](C)[C@H](NC(=O)[C@@H](NC(=O)c1cccc(-c2ccccc2)n1)C1CCCC1)C(=O)NCC(=O)N[C@@H](C)B(O)O` [3b, ((3S,6S,12R)-6-((S)-sec-butyl)-3-cyclopentyl-1,4,7,10-tetraoxo-1-(6-phenylpyridin-2-yl)-2,5,8,11-tetraazatridecan-12-yl)boronic acid], the IC50 turned out to be 7 ± 0.1 nM in data set [1] and 9.3 ± 0.2 nM in data set [2].

`CC(=O)N[C@H](C(=O)N[C@@H](CC(C)(C)C)C(=O)NCC(=O)N[C@@H](C)B(O)O)C1CCCC1` [2e, ((2R,8S,11S)-11-cyclopentyl-8-neopentyl-4,7,10,13-tetraoxo-3,6,9,12-tetraazatetra-decan-2-yl)boronic acid]: the IC50 in data set [2] turned out to be 43.5 ± 2.7 nM. For the same compound, the “fold decreased PfSUB1 potency compared to homologue 2a” value in data set [2] (rPfSUB1 IC50 vs 2a) was ~ 20 fold.

For the compound `CC[C@H](C)[C@H](NC(=O)[C@@H](NCc1ccccn1)C1CCCC1)C(=O)NCC(=O)N[C@@H](C)B(O)O` [3j, ((3S,6S,12R)-6-((S)-sec-butyl)-3-cyclopentyl-4,7,10-trioxo-1-(pyridin-2-yl)-2,5,8,11-tetraazatridecan-12-yl)boronic acid], in data set [2], the IC50 came to 71 ± 6.8 nM.

As to `CC(=O)N[C@H](C(=O)N[C@@H](CC1CCCC1)C(=O)NCC(=O)N[C@@H](C)B(O)O)C1CCCC1` [2c, ((2R,8S,11S)-11-cyclopentyl-8-(cyclopentylmethyl)-4,7,10,13-tetraoxo-3,6,9,12-tetra-azatetradecan-2-yl)boronic acid], the IC50 in data set [2] is 7.5 ± 0.8 nM.

Turning to `CCN(CC)CCCC(C)Nc1ccnc2cc(Cl)ccc12` (stereo not shown) [CQ, chloroquine, reference compound], the values for the EC50 (in the data set with P. falciparum line B11; in data set [3]) were 5.36 nM and 5.74 nM, respectively.

As to `CC(C)C[C@H](NC(=O)[C@H](Cc1ccccc1)NC(=O)c1cnccn1)B(O)O` [5a, bortezomib, reference compound], the “inhibition of rPfSUB1 activity at 1 μM” value in data set [2] is listed as “Non inhibitory^b”; in data set [2] (listed as bortezomib), “lack of inhibition”.

As to `CC[C@H](C)[C@H](NC(=O)[C@@H](NCc1ccccc1)C1CCCC1)C(=O)NCC(=O)N[C@@H](C)B(O)O` [3i, ((3S,6S,12R)-6-((S)-sec-butyl)-3-cyclopentyl-4,7,10-trioxo-1-phenyl-2,5,8,11-tetra-azatridecan-12-yl)boronic acid], the IC50 in data set [2] was 23.2 ± 0.3 nM.

On to `CC(=O)N[C@H](C(=O)N[C@@H](CC1CCCCC1)C(=O)NCC(=O)N[C@@H](C)B(O)O)C1CCCC1` [2d, ((2R,8S,11S)-8-(cyclohexylmethyl)-11-cyclopentyl-4,7,10,13-tetraoxo-3,6,9,12-tetra-azatetradecan-2-yl)boronic acid], for which the IC50 in data set [2] worked out at 6.7 ± 0.3 nM.
